Test results from ChEMBL document CHEMBL1201862, “PubChem BioAssay data set” (2004).
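Grown in 96-well plates, cells were treated for 48 hours with each compound at five concentrations. Insufficient inhibition: endpoint recorded as highest concentration tested. GI50 is the concentration that inhibits growth by half.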 The source made the active and inactive calls. Cut-off read from the data, not from the text of the source: active = GI50 up to about 1.1 µM and inactive = higher.

How the values were obtained:
Test in all cases: inhibition of tumour cell growth, NCI panel, 48 h
[1] = tested on: 786-0
[2] = tested on: A498
[3] = tested on: A549
[4] = tested on: ACHN
[5] = tested on: BT-549
[6] = tested on: CAKI-1
[7] = tested on: CCRF-CEM
[8] = tested on: COLO 205
[9] = tested on: DU-145
[10] = tested on: EKVX
[11] = tested on: HCC 2998
[12] = tested on: HCT-116
[13] = tested on: HCT-15
[14] = tested on: HL-60
[15] = tested on: HOP-62
[16] = tested on: HOP-92
[17] = tested on: HT-29
[18] = tested on: Hs-578T
[19] = tested on: IGROV-1
[20] = tested on: K562
[21] = tested on: KM12
[22] = tested on: LOX IMVI
[23] = tested on: M14
[24] = tested on: MCF7
[25] = tested on: MDA-MB-231
[26] = tested on: MDA-MB-435
[27] = tested on: MDA-N
[28] = tested on: MOLT-4
[29] = tested on: Malme-3M
[30] = tested on: NCI-H226
[31] = tested on: NCI-H23
[32] = tested on: NCI-H460
[33] = tested on: NCI-H522
[34] = tested on: NCI/ADR-RES
[35] = tested on: OVCAR-3
[36] = tested on: OVCAR-4
[37] = tested on: OVCAR-5
[38] = tested on: OVCAR-8
[39] = tested on: PC-3
[40] = tested on: RPMI-8226
[41] = tested on: RXF 393
[42] = tested on: SF-268
[43] = tested on: SF-295
[44] = tested on: SF-539
[45] = tested on: SK-MEL-28
[46] = tested on: SK-MEL-2
[47] = tested on: SK-OV-3
[48] = tested on: SN12C
[49] = tested on: SNB-19
[50] = tested on: SNB-75
[51] = tested on: SR
[52] = tested on: SW-620
[53] = tested on: T47D
[54] = tested on: TK-10
[55] = tested on: U-251
[56] = tested on: UACC-257
[57] = tested on: UACC-62
[58] = tested on: UO-31
[59] = tested on: SK-MEL-5

COc1ccc2nc3cc(Cl)ccc3c(NCCCCCC(=O)NC(COc3cnc4c(ccc5cccnc54)c3)COc3cnc4c(ccc5cccnc54)c3)c2c1
GI50 [1]: 11 µM (inactive)
GI50 [2]: 23.2 µM (inactive)
GI50 [3]: 29.1 µM (inactive)
GI50 [4]: 36.6 µM (inactive)
GI50 [5]: 10.5 µM (inactive)
GI50 [6]: 36.1 µM (inactive)
GI50 [7]: 1.99 µM (inactive)
GI50 [8]: 2.79 µM (inactive)
GI50 [9]: 11.3 µM (inactive)
GI50 [10]: 22.8 µM (inactive)
GI50 [11]: 12.6 µM (inactive)
GI50 [12]: 3.94 µM (inactive)
GI50 [13]: > 100 µM
GI50 [14]: 3.44 µM (inactive)
GI50 [15]: 15.7 µM (inactive)
GI50 [16]: > 100 µM (inactive)
GI50 [17]: 5.45 µM (inactive)
GI50 [18]: 50.8 µM (inactive)
GI50 [19]: 10 µM (inactive)
GI50 [20]: 3.43 µM (inactive)
GI50 [21]: 5.92 µM (inactive)
GI50 [22]: 3.72 µM (inactive)
GI50 [23]: 77.1 µM (inactive)
GI50 [24]: 5.04 µM (inactive)
GI50 [25]: 6.34 µM (inactive)
GI50 [26]: 18.5 µM (inactive)
GI50 [27]: 19 µM (inactive)
GI50 [28]: 1.65 µM (inactive)
GI50 [29]: 34.9 µM (inactive)
GI50 [30]: 4.73 µM (inactive)
GI50 [31]: 28.2 µM (inactive)
GI50 [32]: 5.47 µM (inactive)
GI50 [33]: 26.9 µM (inactive)
GI50 [34]: > 100 µM (inactive)
GI50 [35]: 4.02 µM (inactive)
GI50 [36]: 7.28 µM (inactive)
GI50 [37]: 24.1 µM (inactive)
GI50 [38]: 31.4 µM (inactive)
GI50 [39]: 13.9 µM (inactive)
GI50 [40]: 5.65 µM (inactive)
GI50 [41]: 10.8 µM (inactive)
GI50 [42]: 12.8 µM (inactive)
GI50 [43]: 20.8 µM (inactive)
GI50 [44]: 10.9 µM (inactive)
GI50 [45]: 17.6 µM (inactive)
GI50 [46]: 14.1 µM (inactive)
GI50 [47]: 21.9 µM (inactive)
GI50 [48]: 22.9 µM (inactive)
GI50 [49]: 13.6 µM (inactive)
GI50 [50]: 0.0313 µM (active)
GI50 [51]: 2.76 µM (inactive)
GI50 [52]: 10.5 µM (inactive)
GI50 [53]: 7.29 µM (inactive)
GI50 [54]: 27.5 µM (inactive)
GI50 [55]: 8.53 µM (inactive)
GI50 [56]: 8.93 µM (inactive)
GI50 [57]: 21.4 µM (inactive)
GI50 [58]: 74.5 µM (inactive)

C=C(C(=O)O[C@H]1C/C(C)=C/CC/C(CO)=C/[C@H]2C(=O)OC(=C)[C@H]12)C(O)CO (some centres not stated)
GI50 [1]: 5.98 µM (inactive)
GI50 [2]: 18.5 µM (inactive)
GI50 [3]: 22.9 µM (inactive)
GI50 [4]: 12.3 µM (inactive)
GI50 [5]: 14.4 µM (inactive)
GI50 [6]: 4.46 µM (inactive)
GI50 [7]: 1.67 µM (inactive)
GI50 [8]: 3.37 µM (inactive)
GI50 [9]: 17.3 µM (inactive)
GI50 [10]: 17.3 µM (inactive)
GI50 [11]: 16.4 µM (inactive)
GI50 [12]: 7.18 µM (inactive)
GI50 [13]: 8.05 µM
GI50 [14]: 2.49 µM (inactive)
GI50 [15]: 24.5 µM (inactive)
GI50 [16]: 8.75 µM (inactive)
GI50 [17]: 17.9 µM (inactive)
GI50 [18]: 23.5 µM (inactive)
GI50 [19]: 19.5 µM (inactive)
GI50 [20]: 4.08 µM (inactive)
GI50 [21]: 20.4 µM (inactive)
GI50 [22]: 16.3 µM (inactive)
GI50 [23]: 12.2 µM (inactive)
GI50 [24]: 11.5 µM (inactive)
GI50 [25]: 17.9 µM (inactive)
GI50 [26]: 9.59 µM (inactive)
GI50 [27]: 11.7 µM (inactive)
GI50 [28]: 5.37 µM (inactive)
GI50 [29]: 5.16 µM (inactive)
GI50 [30]: 17.9 µM (inactive)
GI50 [31]: 16.3 µM (inactive)
GI50 [32]: 17.2 µM (inactive)
GI50 [33]: 1.68 µM (inactive)
GI50 [34]: 19.8 µM (inactive)
GI50 [35]: 6.76 µM (inactive)
GI50 [36]: 20.5 µM (inactive)
GI50 [37]: 17.3 µM (inactive)
GI50 [38]: 15.2 µM (inactive)
GI50 [39]: 9.77 µM (inactive)
GI50 [40]: 2 µM (inactive)
GI50 [41]: 8.28 µM (inactive)
GI50 [42]: 18.7 µM (inactive)
GI50 [43]: 26.1 µM (inactive)
GI50 [44]: 4.71 µM (inactive)
GI50 [45]: 14.5 µM (inactive)
GI50 [46]: 15.6 µM (inactive)
GI50 [59]: 15.5 µM (inactive)
GI50 [47]: 18.5 µM (inactive)
GI50 [48]: 15.3 µM (inactive)
GI50 [49]: 21.4 µM (inactive)
GI50 [50]: 18.7 µM (inactive)
GI50 [51]: 2.5 µM (inactive)
GI50 [52]: 3.71 µM (inactive)
GI50 [53]: 3.75 µM (inactive)
GI50 [54]: 7.93 µM (inactive)
GI50 [55]: 12.1 µM (inactive)
GI50 [56]: 11.5 µM (inactive)
GI50 [57]: 17.5 µM (inactive)
GI50 [58]: 8.18 µM (inactive)
